Data from US20240287046A1, “COMPOUNDS AND RADIOLIGANDS FOR TARGETING NEUROTENSIN RECEPTOR AND USES THEREOF” (Full-Life Technologies HK Limited, priority 2022, published 2024).

Experiments:
[1] = molecular target: human NTSR-1 (Homo sapiens (Human), UniProt P30989); assay: radioligand competitive binding assay using ^177Lu labeled C-1 as reference radioligand; details: Mean IC50 of C-1/Mean IC50 of the test compound
Method: The binding affinities of test compounds were determined by a radioligand competitive binding assay using ^177Lu labeled C-1 as the reference radioligand.
Briefly, 100 μL HT-29 cells expressing human NTSR-1 at a density of 1˜2×10^6 cells/mL were mixed with binding buffer (RPMI-1640 medium supplemented with 0.25% bovine serum albumin) in each well of the 96-well filter plate (Millipore). Then the cells in each well were incubated with ^177Lu—C-1 (0.55 μCi/well) and the test compound under 37° C. for 1 hr (n=3). After incubation, unbound ^177Lu—C-1 and the test compound in each well was removed by filtration using a Multiscreen vacuum manifold (Millipore) and the cells were further rinsed with the binding buffer for 5 times. The cells from each well were then collected and radioactivity of the cells in each well was individually measured by y counter (2480 WIZARD2, PerkinElmer). The best-fit IC50 value of test compounds (inhibitory concentration when 50% of the bound ^177Lu—C-1 on cells were displaced) were calculated by fitting the data with nonlinear regression using GraphPad Prism 8.0.1.

[2] = tested on: HT-29 tumor-bearing mice; assay: Biodistribution of radionuclide labeled complexes in HT-29 tumor-bearing mice; assay type: in vivo, BALB/c nude mice
Method: (§1) The BALB/c nude mice (Charles River, Beijing) were utilized to establish the xenografted model for biodistribution study. All animal care and experimental procedure were performed by following the animal protocols approved by the ethics committee of China Institute of Radiation Protection.
(§2) Briefly, each mouse was inoculated with approximately 4×10^6 ASPC-1 cells (human pancreatic cancer cell line) or HT-29 cells (human colorectal adenocarcinoma cell line) expressing human NTSR-1 by subcutaneous injection at rear flank. After inoculation, the xenografted tumors were allowed to grow for ˜2-4 weeks till the tumor weight reached to about 0.05 to 0.50 g (0.20 g in average).
(§3) Biodistribution studies were performed by administrating the radionuclide labeled test compound at a dose of ˜30-50 μCi (100 μL in 0.9% NaCl, ˜1.11-1.85 MBq, with specific activity 30-250 μCi/nmol) to each animal through tail vein injection.
(§4) At different time points after the administration, the mice treated with each compound were euthanized. The tissues and organs of the animals in each group were collected, excised, weighed, and analyzed in a PerkinElmer 2480 WIZARD2γ counter, and the percent injected dose (% ID) and % ID/g of each organ or tissue were calculated.

[3] = tested on: ASPC-1 tumor-bearing mice; assay: Biodistribution of radionuclide labeled complexes in ASPC-1 tumor-bearing mice; assay type: in vivo, BALB/c nude mice
Method: as §1, §2, §3, §4

Chain of human NTSR-1 (P30989 whole entry): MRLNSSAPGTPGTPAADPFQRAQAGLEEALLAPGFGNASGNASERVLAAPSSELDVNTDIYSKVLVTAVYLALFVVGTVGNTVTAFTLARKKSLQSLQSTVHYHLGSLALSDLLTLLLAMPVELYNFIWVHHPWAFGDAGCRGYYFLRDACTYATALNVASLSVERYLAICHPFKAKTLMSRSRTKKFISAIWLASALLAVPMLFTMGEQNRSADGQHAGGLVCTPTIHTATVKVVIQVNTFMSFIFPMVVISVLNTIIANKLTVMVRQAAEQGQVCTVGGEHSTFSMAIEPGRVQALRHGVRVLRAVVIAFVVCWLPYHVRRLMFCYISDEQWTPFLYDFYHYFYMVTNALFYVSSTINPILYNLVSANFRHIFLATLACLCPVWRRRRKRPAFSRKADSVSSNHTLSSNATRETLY

COc1cccc(OC)c1-c1cc(C(=O)NC2(C(=O)O)C3CC4CC(C3)CC2C4)nn1-c1ccc(CCCCN(C)CCCN(C)C(=O)CN2CCN(CC(=O)O)CCN(CC(=O)O)CCN(CC(=O)O)CC2)cc1C(C)C (stereo not shown) [Compound I-9, 2,2′,2″-(10-(2-((3-((4-(4-(3-((2-carboxyadamantan-2-yl)carbamoyl)-5-(2,6-dimethoxyphenyl)-1H-pyrazol-1-yl)-3-isopropylphenyl)butyl)(methyl)amino)propyl)(methyl)amino)-2-oxoethyl)-1,4,7,10-tetraazacyclododecane-1,4,7-triyl)triacetic acid]
Relative Binding Affinity [1]: 243.5

COc1cccc(OC)c1-c1cc(C(=O)NC2(C(=O)O)C3CC4CC(C3)CC2C4)nn1-c1ccc(NC(=O)COCCOCCNC(=O)CN2CCN(CC(=O)O)CCN(CC(=O)O)CCN(CC(=O)O)CC2)cc1C(C)C (stereo not shown) [Compound I-12]
Relative Binding Affinity [1]: 11.2

COc1cccc(OC)c1-c1cc(C(=O)NC2(C(=O)O)C3CC4CC(C3)CC2C4)nn1-c1ccc(N(CCCN(C)C)C(=O)COCCOCCNC(=O)CN2CCN(CC(=O)O)CCN(CC(=O)O)CC2)cc1C(C)C (stereo not shown) [Compound I-13]
Relative Binding Affinity [1]: 14.6

COc1cccc(OC)c1-c1cc(C(=O)NC2(C(=O)O)C3CC4CC(C3)CC2C4)nn1-c1ccc(N(CCCN(C)C)C(=O)COCCOCCNC(=O)CN2CCN(CC(=O)[O-])CCN(CC(=O)[O-])CCN(CC(=O)[O-])CC2)cc1C(C)C.[177Lu+3] (stereo not shown) [^177Lu-I-6]
% ID/g (1 h) Blood ([2]; Blood, 1 h): 3.2 ± 1.07 % ID/g | % ID/g (4 h) Blood ([2]; Blood, 4 h): 0.08 ± 0.03 % ID/g | % ID/g (1 h) Femur ([2]; Femur, 1 h): 0.68 ± 0.18 % ID/g | % ID/g (4 h) Femur ([2]; Femur, 4 h): 0.2 ± 0.03 % ID/g | % ID/g (1 h) Heart ([2]; Heart, 1 h): 1.17 ± 0.24 % ID/g | % ID/g (4 h) Heart ([2]; Heart, 4 h): 0.12 ± 0.03 % ID/g | % ID/g (1 h) Intestine ([2]; Intestine, 1 h): 1.21 ± 0.06 % ID/g | % ID/g (4 h) Intestine ([2]; Intestine, 4 h): 0.27 ± 0.07 % ID/g | % ID/g (1 h) Kidney ([2]; Kidney, 1 h): 5.9 ± 4.85 % ID/g | % ID/g (4 h) Kidney ([2]; Kidney, 4 h): 5.14 ± 2.21 % ID/g | % ID/g (1 h) Liver ([2]; Liver, 1 h): 1.28 ± 0.47 % ID/g | % ID/g (4 h) Liver ([2]; Liver, 4 h): 0.83 ± 0.27 % ID/g | % ID/g (1 h) Lung ([2]; Lung, 1 h): 1.66 ± 1.17 % ID/g | % ID/g (4 h) Lung ([2]; Lung, 4 h): 0.27 ± 0.04 % ID/g | % ID/g (1 h) Muscle ([2]; Muscle, 1 h): 0.57 ± 0.15 % ID/g | % ID/g (4 h) Muscle ([2]; Muscle, 4 h): 0.09 ± 0.04 % ID/g | % ID/g (1 h) Pancreas ([2]; Pancreas, 1 h): 0.62 ± 0.25 % ID/g | % ID/g (4 h) Pancreas ([2]; Pancreas, 4 h): 0.14 ± 0.02 % ID/g | % ID/g (1 h) Spleen ([2]; Spleen, 1 h): 0.45 ± 0.19 % ID/g | % ID/g (4 h) Spleen ([2]; Spleen, 4 h): 0.26 ± 0.1 % ID/g | % ID/g (1 h) Stomach ([2]; Stomach, 1 h): 0.69 ± 0.23 % ID/g | % ID/g (4 h) Stomach ([2]; Stomach, 4 h): 0.32 ± 0.2 % ID/g | % ID/g (1 h) Tumor ([2]; Tumor, 1 h): 10.31 ± 4.72 % ID/g | % ID/g (4 h) Tumor ([2]; Tumor, 4 h): 7.53 ± 3.52 % ID/g | tumor uptake relative to blood, liver and lung compared to ^177Lu—C5 ([3]; 1 or 4 hours): significantly higher tumor uptake | uptake ratio Tumor/Blood ([3]; 1 h): 33.3 | uptake ratio Tumor/Kidney ([3]; 1 h): 3.42 | uptake ratio Tumor/Liver ([3]; 1 h): 25.0 | uptake ratio Tumor/Lung ([3]; 1 h): 23.7 | uptake ratio Tumor/Blood ([3]; 4 h): 364 | uptake ratio Tumor/Kidney ([3]; 4 h): 5.70 | uptake ratio Tumor/Liver ([3]; 4 h): 25.9 | uptake ratio Tumor/Lung ([3]; 4 h): 79.3 | % ID/g (1 h) Blood ([3]; Blood, 1 h): 0.38 ± 0.06 % ID/g | % ID/g (4 h) Blood ([3]; Blood, 4 h): 0.04 ± 0.01 % ID/g | % ID/g (1 h) Femur ([3]; Femur, 1 h): 0.12 ± 0.01 % ID/g | % ID/g (4 h) Femur ([3]; Femur, 4 h): 0.12 ± 0.09 % ID/g | % ID/g (1 h) Heart ([3]; Heart, 1 h): 0.22 ± 0.12 % ID/g | % ID/g (4 h) Heart ([3]; Heart, 4 h): 0.12 ± 0.03 % ID/g | % ID/g (1 h) Intestine ([3]; Intestine, 1 h): 0.77 ± 0.31 % ID/g | % ID/g (4 h) Intestine ([3]; Intestine, 4 h): 0.22 ± 0.06 % ID/g | % ID/g (1 h) Kidney ([3]; Kidney, 1 h): 3.71 ± 0.24 % ID/g | % ID/g (4 h) Kidney ([3]; Kidney, 4 h): 2.39 ± 0.37 % ID/g | % ID/g (1 h) Liver ([3]; Liver, 1 h): 0.51 ± 0.22 % ID/g | % ID/g (4 h) Liver ([3]; Liver, 4 h): 0.53 ± 0.16 % ID/g | % ID/g (1 h) Lung ([3]; Lung, 1 h): 0.54 ± 0.04 % ID/g | % ID/g (4 h) Lung ([3]; Lung, 4 h): 0.17 ± 0.08 % ID/g | % ID/g (1 h) Muscle ([3]; Muscle, 1 h): 0.06 ± 0 % ID/g | % ID/g (4 h) Muscle ([3]; Muscle, 4 h): 0.08 ± 0.02 % ID/g | % ID/g (1 h) Pancreas ([3]; Pancreas, 1 h): 0.11 ± 0.03 % ID/g | % ID/g (4 h) Pancreas ([3]; Pancreas, 4 h): 0.06 ± 0.02 % ID/g | % ID/g (1 h) Spleen ([3]; Spleen, 1 h): 0.09 ± 0.01 % ID/g | % ID/g (4 h) Spleen ([3]; Spleen, 4 h): 0.13 ± 0.03 % ID/g | % ID/g (1 h) Stomach ([3]; Stomach, 1 h): 0.27 ± 0.19 % ID/g | % ID/g (4 h) Stomach ([3]; Stomach, 4 h): 0.21 ± 0.05 % ID/g | % ID/g (1 h) Tumor ([3]; Tumor, 1 h): 12.71 ± 4.57 % ID/g | % ID/g (4 h) Tumor ([3]; Tumor, 4 h): 13.64 ± 2.5 % ID/g

COc1cccc(OC)c1-c1cc(C(=O)NC2(C(=O)O)C3CC4CC(C3)CC2C4)nn1-c1ccc(NCCOCCOCCNC(=O)CN2CCN(CC(=O)[O-])CCN(CC(=O)[O-])CCN(CC(=O)[O-])CC2)cc1C(C)C.[177Lu+3] (stereo not shown) [^177Lu-I-10]
% ID/g (4 h) Blood ([3]; Blood, 4 h): 0.93 ± 0.29 % ID/g | % ID/g (24 h) Blood ([3]; Blood, 24 h): 0.04 ± 0.00 % ID/g | % ID/g (72 h) Blood ([3]; Blood, 72 h): 0.01 ± 0.00 % ID/g | % ID/g (4 h) Femur ([3]; Femur, 4 h): 0.23 ± 0.06 % ID/g | % ID/g (24 h) Femur ([3]; Femur, 24 h): 0.04 ± 0.02 % ID/g | % ID/g (72 h) Femur ([3]; Femur, 72 h): 0.02 ± 0 % ID/g | % ID/g (4 h) Heart ([3]; Heart, 4 h): 0.41 ± 0.13 % ID/g | % ID/g (24 h) Heart ([3]; Heart, 24 h): 0.04 ± 0.02 % ID/g | % ID/g (72 h) Heart ([3]; Heart, 72 h): 0.01 ± 0.01 % ID/g | % ID/g (4 h) Intestine ([3]; Intestine, 4 h): 1.86 ± 0.58 % ID/g | % ID/g (24 h) Intestine ([3]; Intestine, 24 h): 0.14 ± 0.01 % ID/g | % ID/g (72 h) Intestine ([3]; Intestine, 72 h): 0.04 ± 0.01 % ID/g | % ID/g (4 h) Kidney ([3]; Kidney, 4 h): 3.02 ± 0.39 % ID/g | % ID/g (24 h) Kidney ([3]; Kidney, 24 h): 0.31 ± 0.11 % ID/g | % ID/g (72 h) Kidney ([3]; Kidney, 72 h): 0.04 ± 0.01 % ID/g | % ID/g (4 h) Liver ([3]; Liver, 4 h): 0.96 ± 0.4 % ID/g | % ID/g (24 h) Liver ([3]; Liver, 24 h): 0.14 ± 0.01 % ID/g | % ID/g (72 h) Liver ([3]; Liver, 72 h): 0.06 ± 0.02 % ID/g | % ID/g (4 h) Lung ([3]; Lung, 4 h): 0.74 ± 0.72 % ID/g | % ID/g (24 h) Lung ([3]; Lung, 24 h): 0.4 ± 0.26 % ID/g | % ID/g (72 h) Lung ([3]; Lung, 72 h): 0.05 ± 0.03 % ID/g | % ID/g (4 h) Muscle ([3]; Muscle, 4 h): 0.13 ± 0.12 % ID/g | % ID/g (24 h) Muscle ([3]; Muscle, 24 h): 0.01 ± 0.01 % ID/g | % ID/g (72 h) Muscle ([3]; Muscle, 72 h): 0.011 ± 0.01 % ID/g | % ID/g (4 h) Pancreas ([3]; Pancreas, 4 h): 0.07 ± 0.01 % ID/g | % ID/g (24 h) Pancreas ([3]; Pancreas, 24 h): 0.04 ± 0.02 % ID/g | % ID/g (72 h) Pancreas ([3]; Pancreas, 72 h): 0.01 ± 0 % ID/g | % ID/g (4 h) Spleen ([3]; Spleen, 4 h): 0.3 ± 0.14 % ID/g | % ID/g (24 h) Spleen ([3]; Spleen, 24 h): 0.12 ± 0.05 % ID/g | % ID/g (72 h) Spleen ([3]; Spleen, 72 h): 0.02 ± 0.01 % ID/g | % ID/g (4 h) Stomach ([3]; Stomach, 4 h): 1.88 ± 0.59 % ID/g | % ID/g (24 h) Stomach ([3]; Stomach, 24 h): 0.1 ± 0.07 % ID/g | % ID/g (72 h) Stomach ([3]; Stomach, 72 h): 0.04 ± 0.01 % ID/g | % ID/g (4 h) Tumor ([3]; Tumor, 4 h): 17.97 ± 11.04 % ID/g | % ID/g (24 h) Tumor ([3]; Tumor, 24 h): 12.27 ± 7.59 % ID/g | % ID/g (72 h) Tumor ([3]; Tumor, 72 h): 4.24 ± 2.71 % ID/g | ratio of tumor AUC verse normal organ AUC ([3]; compared to ^177Lu—C2): significantly improved
